Data from patent US11981696B2, “Fluoro-pyridinone phosphates and boronates useful as antibacterial agents” (Pfizer Inc., priority 2018, dated 2024).
In brackets after ≈: the same amount, converted by molar mass.

How the values were obtained:
hepatocytes from rat = assay: In vitro hepatocyte study, rat; assay type: in vitro ADME; settings: concomitant appearance of parent compound and its glucuronide metabolite
Description: (§1) In vitro hepatocyte study: The disposition of (2R)-4-[5-fluoro-4-(2-fluoro-4-methoxyphenyl)-2-oxopyridin-1(2H)-yl]-N-hydroxy-2-methyl-2-(methylsulfonyl) butanamide phosphate was examined in hepatocytes from mouse, rat, dog, monkey and human. In each case, qualitatively it was observed that the (2R)-4-[5-fluoro-4-(2-fluoro-4-methoxyphenyl)-2-oxopyridin-1(2H)-yl]-N-hydroxy-2-methyl-2-(methylsulfonyl) butanamide phosphate disappeared, concomitant with appearance of (2R)-4-[5-fluoro-4-(2-fluoro-4-methoxyphenyl)-2-oxopyridin-1(2H)-yl]-N-hydroxy-2-methyl-2-(methylsulfonyl) butanamide (parent compound) and a glucuronide metabolite of the parent compound. In Vivo Studies

hepatocytes from monkey = assay: In vitro hepatocyte study, monkey; assay type: in vitro ADME; settings: concomitant appearance of parent compound and its glucuronide metabolite
Description: as §1

hepatocytes from human = assay: In vitro hepatocyte study, human; assay type: in vitro ADME; settings: concomitant appearance of parent compound and its glucuronide metabolite
Description: as §1

hepatocytes from mouse = assay: In vitro hepatocyte study, mouse; assay type: in vitro ADME; settings: concomitant appearance of parent compound and its glucuronide metabolite
Description: as §1

hepatocytes from dog = assay: In vitro hepatocyte study, dog; assay type: in vitro ADME; settings: concomitant appearance of parent compound and its glucuronide metabolite
Description: as §1

[1] = Solubility in normal saline; assay type: physicochemical; settings: saline or isotonic
Escherichia coli EC-1 = assay: MIC determination (CLSI), EC-1; assay type: cell-based; settings: EC1, read-out: EC-1 MIC
Procedure: (§2) B) MIC determinations: The in vitro antibacterial activity of compounds was evaluated by minimum inhibitory concentration (MIC) testing according to Clinical and Laboratory Standards Institute (CLSI). See: Clinical and Laboratory Standards Institute. Methods for Dilution Antimicrobial Susceptibility Tests for Bacteria that Grow Aerobically; Approved Standard-Eighth Edition. CLSI document M7-A8 [ISBN 1-56238-689-1]. Clinical and Laboratory Standards Institute, 940 West Valley Road, Suite 1400, Wayne, Pennsylvania 19087-1898 USA, 2006; also Clinical and Laboratory Standards Institute. Performance Standards for Antimicrobial Susceptibility Testing; Twentieth Informational Supplement. CLSI document M100-S20 [ISBN1-56238-716-2]. Clinical and Laboratory Standards Institute.
(§3) The MIC determination is a standard laboratory method for evaluating the antibacterial activity of a compound. […] The MIC is then determined by visually inspecting the drug effect at each concentration, and identifying the lowest drug concentration that has inhibited bacterial growth as compared to the drug free control. […]
(§4) The MIC values described in Table 3 below were derived from assays wherein each test compound was evaluated in duplicate. […] While a single MIC is reported for each compound and each microorganism, the reader should not conclude that each compound was only tested once. […]

[2] = test system: Klebsiella pneumoniae KP-3700; assay: MIC determination (CLSI), KP-3700; assay type: cell-based; settings: ciprofloxacin-resistant, ESBL clinical isolate; lower of duplicate values
Procedure: as §2, §3, §4

[3] = test system: Acinetobacter baumannii/haemolyticus AB-3167; assay: MIC determination (CLSI), AB-3167; assay type: cell-based; settings: multidrug-resistant clinical isolate, lower of duplicate values
Procedure: as §2, §3, §4

[4] = test system: Pseudomonas aeruginosa UI-18 (PA-7); assay: MIC determination (CLSI), PA-7; assay type: cell-based; settings: wild-type UI-18, lower of duplicate values
Procedure: as §2, §3, §4

SMILES | disposition in hepatocytes (qualitative) (hepatocytes from rat) | disposition in hepatocytes (qualitative) (hepatocytes from monkey) | disposition in hepatocytes (qualitative) (hepatocytes from human) | disposition in hepatocytes (qualitative) (hepatocytes from mouse) | disposition in hepatocytes (qualitative) (hepatocytes from dog) | solubility [1] [mg/mL] | MIC (Escherichia coli EC-1) [µg/mL] | KP-3700 MIC [2] [µg/mL] | MIC [3] [µg/mL] | MIC [4] [µg/mL]
COc1ccc(-c2cc(=O)n(CC[C@](C)(C(=O)NOP(=O)(O)O)S(C)(=O)=O)cc2F)c(F)c1 [Example 1, (2R)-4-(5-fluoro-4-(2-fluoro-4-methoxyphenyl)-2-oxopyridin-1(2H)-yl)-2-methyl-2-(methylsulfonyl)butanamido phosphate] | disappeared | disappeared | disappeared | disappeared | disappeared |  |  |  |  | 
COc1ccc(-c2cc(=O)n(CC[C@](C)(C(=O)NOP(=O)([O-])[O-])S(C)(=O)=O)cc2F)c(F)c1.[Na+].[Na+] [Example 3, (R)-4-(5-fluoro-4-(2-fluoro-4-methoxyphenyl)-2-oxopyridin-1(2H)-yl)-2-methyl-2-(methylsulfonyl)butanamido phosphate, Disodium Salt] |  |  |  |  |  | ≥ 20 |  |  |  | 
COc1ccc(-c2cc(=O)n(CC[C@](C)(C(=O)NO)S(C)(=O)=O)cc2F)c(F)c1 [Parent Compound, (2R)-4-[5-fluoro-4-(2-fluoro-4-methoxyphenyl)-2-oxopyridin-1(2H)-yl]-N-hydroxy-2-methyl-2-(methylsulfonyl)butanamide] |  |  |  |  |  | < 1 | 0.25 (≈ 0.581 µM) | 0.5 | > 64 | 0.5 (≈ 1.16 µM)
